# Data reported in patent US20130210809A1, “NOVEL 2-AMINO-4-PYRAZOLYL-THIAZOLE DERIVATIVES AND THEIR USE AS ALLOSTERIC MODULATORS OF METABOTROPIC GLUTAMATE RECEPTORS” (priority 2010, published 2013).
# Biological target: T1, recombinant human mGluR4a receptors (Homo sapiens, UniProt Q14833)
# T1 construct: expressed in transfected cells
# Assay: mGluR4 assay on HEK-expressing human mGluR4 (fluorescent cell based Ca2+ mobilization assay, FLIPR)
# Details: HEK-293 cells expressing hmGluR4; enhancement of EC25 glutamate response; mean of at least three independent experiments in duplicate; read-out: Ca^2+ Flux (mean EC50)
# Excerpt: mGluR4 Assay on HEK-Expressing Human mGluR4
# The compounds of the present invention are positive allosteric modulators of mGluR4 receptor. Their activity was examined on recombinant human mGluR4a receptors by detecting changes in intracellular Ca^2+ concentration, using the fluorescent Ca^2+-sensitive dye Fluo4-(AM) and a Fluorometric Imaging Plate Reader (FLIPR, Molecular Devices, Sunnyvale, Calif.).
# The cDNA encoding the human metabotropic glutamate receptor (hmGluR4), (accession number NM_000841.1, NCBI Nucleotide database browser), was subcloned into an expression vector containing also the Hygromycin resistance gene. In parallel, the cDNA encoding a G protein allowing redirection of the activation signal to intracellular calcium flux was subcloned into a different expression vector containing also the Puromycin resistance gene. Transfection of both these vectors into HEK293 cells with PolyFect reagent (Qiagen) according to supplier's protocol, and hygromycin and puromycin treatment allowed selection of antibiotic resistant cells which had integrated stably one or more copies of the plasmids. Positive cellular clones expressing hmGluR4 were identified in a functional assay measuring changes in calcium flux in response to glutamate or selective known mGluR4 orthosteric agonists and antagonists. HEK-293 cells expressing hmGluR4 were maintained in media containing DMEM, dialyzed Fetal Calf Serum (10%), Glutamax™ (2 mM), Penicillin (100 units/mL), Streptomycin (100 μg/mL), Geneticin (100 μg/mL) and Hygromycin-B (40 μg/mL) and Puromycin (1 μg/mL) at 37° C./5% CO2.
# Human mGluR4 HEK-293 cells were plated out 24 hours prior to FLIPR^384 assay in black-walled, clear-bottomed, poly-L-ornithine-coated 384-well plates at a density of 25,000 cells/well in a glutamine/glutamate free DMEM medium containing foetal bovine serum (10%), penicillin (100 units/mL) and streptomycin (100 μg/mL) at 37° C./5% CO2.
# On the day of the assay, the medium was aspirated and the cells were loaded with a 3 μM solution of Fluo4-AM (LuBioScience, Lucerne, Switzerland) in 0.03% pluronic acid. After 1 hour at 37° C./5% CO2, the non incorporated dye was removed by washing cell plate with the assay buffer and the cells were left in the dark at it for six hours before testing. All assays were performed in a pH 7.4 buffered-solution containing 20 mM HEPES, 143 mM NaCl, 6 mM KCl, 1 mM MgSO4, 1 mM CaCl2, 0.125 mM sulfapyrazone and 0.1% glucose.
# After 10 s of basal fluorescence recording, various concentrations of the compounds of the invention were added to the cells. Changes in fluorescence levels were first monitored for 180 s in order to detect any agonist activity of the compounds. Then the cells were stimulated by an EC25 glutamate concentration for an additional 110 s in order to measure enhancing activities of the compounds of the invention. EC25 glutamate concentration is the concentration giving 25% of the maximal glutamate response.
# The concentration-response curves of representative compounds of the present invention were generated using the Prism GraphPad software (Graph Pad Inc, San Diego, USA). The curves were fitted to a four-parameter logistic equation:
# (Y=Bottom+(Top−Bottom)/(1+10̂((Log EC50-X)*Hill Slope)
# allowing the determination of EC50 values.
# The Table 3 below represents the mean EC50 obtained from at least three independent experiments of selected molecules performed in duplicate.
# T1 sequence (Q14833 33-912): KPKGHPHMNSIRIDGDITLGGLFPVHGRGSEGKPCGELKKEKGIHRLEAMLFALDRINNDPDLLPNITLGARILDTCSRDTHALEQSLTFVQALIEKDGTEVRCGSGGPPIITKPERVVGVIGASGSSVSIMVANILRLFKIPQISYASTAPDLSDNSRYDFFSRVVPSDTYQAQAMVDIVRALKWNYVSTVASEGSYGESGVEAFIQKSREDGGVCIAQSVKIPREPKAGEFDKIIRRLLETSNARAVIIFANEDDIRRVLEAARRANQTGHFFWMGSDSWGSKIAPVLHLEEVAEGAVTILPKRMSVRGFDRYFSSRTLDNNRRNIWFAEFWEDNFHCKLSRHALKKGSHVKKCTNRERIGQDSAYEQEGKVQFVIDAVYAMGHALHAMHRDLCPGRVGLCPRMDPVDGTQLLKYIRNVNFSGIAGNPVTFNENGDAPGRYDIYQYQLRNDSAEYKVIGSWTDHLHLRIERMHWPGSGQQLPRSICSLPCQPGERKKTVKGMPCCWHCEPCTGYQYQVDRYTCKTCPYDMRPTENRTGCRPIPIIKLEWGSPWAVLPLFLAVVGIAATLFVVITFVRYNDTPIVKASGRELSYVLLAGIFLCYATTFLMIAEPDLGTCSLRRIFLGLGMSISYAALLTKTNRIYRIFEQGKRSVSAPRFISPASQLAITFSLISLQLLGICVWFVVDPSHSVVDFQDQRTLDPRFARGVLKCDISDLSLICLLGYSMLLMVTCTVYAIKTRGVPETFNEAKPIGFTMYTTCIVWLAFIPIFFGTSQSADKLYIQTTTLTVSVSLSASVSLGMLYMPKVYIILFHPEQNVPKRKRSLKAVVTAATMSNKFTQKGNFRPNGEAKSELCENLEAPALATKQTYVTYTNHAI
row,Molecule,EC50 [nM]
1,3-(3-(2-(Pyrimidin-2-ylamino)thiazol-4-yl)-1H-pyrazol-4-yl)benzonitrile [Compound 1-43],< 100
2,"Cc1ccnc(Nc2nc(-c3c[nH]nc3C(F)F)cs2)n1 [Compound 1-1, 4-(3-(Difluoromethyl)-1H-pyrazol-4-yl)-N-(4-methylpyrimidin-2-yl)thiazol-2-amine]",< 100
3,"Cc1ccnc(Nc2nc(-c3c[nH]nc3-c3cccc(N4CCS(=O)(=O)CC4)c3)cs2)n1 [Compound 1-2, N-(4-Methylpyrimidin-2-yl)-4-(3-(3-(1,1-dioxido-4-thiomorpholinyl)phenyl)-1H-pyrazol-4-yl)thiazol-2-amine]",1000 to 10000
4,"Cc1ccnc(Nc2nc(-c3c[nH]nc3-c3ccccc3F)cs2)n1 [Compound 1-3, 4-(3-(2-Fluorophenyl)-1H-pyrazol-4-yl)-N-(4-methylpyrimidin-2-yl)thiazol-2-amine]",< 100
5,"Cc1ccnc(Nc2nc(-c3c[nH]nc3-c3cccc(C#N)c3)cs2)n1 [Compound 1-4, 3-(4-(2-(4-Methylpyrimidin-2-ylamino)thiazol-4-yl)-1H-pyrazol-3-yl)benzonitrile]",< 100
6,"Cc1ccnc(Nc2nc(-c3c[nH]nc3-c3ccc(C(O)C(F)(F)F)cc3)cs2)n1 (stereo not drawn) [Compound 1-6, 2,2,2-Trifluoro-1-(4-(4-(2-(4-methylpyrimidin-2-ylamino)thiazol-4-yl)-1H-pyrazol-3-yl)phenyl)ethanol]",1000 to 10000
7,"Cc1ccnc(Nc2nc(-c3c[nH]nc3-c3cccc4c3CNC4=O)cs2)n1 [Compound 1-7, 4-(4-(2-(4-Methylpyrimidin-2-ylamino)thiazol-4-yl)-1H-pyrazol-3-yl)isoindolin-1-one]",1000 to 10000
8,"Cc1ccnc(Nc2nc(-c3c[nH]nc3-c3cnn4c3CCC4)cs2)n1 [Compound 1-8, 4-(3-(5,6-Dihydro-4H-pyrrolo[1,2-b]pyrazol-3-yl)-1H-pyrazol-4-yl)-N-(4-methylpyrimidin-2-yl)thiazol-2-amine]",1000 to 10000
9,"Cc1ccnc(Nc2nc(-c3c[nH]nc3-c3cccc(CN4CCOCC4)c3)cs2)n1 [Compound 1-9, N-(4-Methylpyrimidin-2-yl)-4-(3-(3-(morpholinomethyl)phenyl)-1H-pyrazol-4-yl)thiazol-2-amine]",1000 to 10000
10,"Cc1ccnc(Nc2nc(-c3c[nH]nc3-c3cncc(Cl)c3)cs2)n1 [Compound 1-10, 4-(3-(5-Chloropyridin-3-yl)-1H-pyrazol-4-yl)-N-(4-methylpyrimidin-2-yl)thiazol-2-amine]",1000 to 10000
11,"COc1ccccc1-c1n[nH]cc1-c1csc(Nc2nccc(C)n2)n1 [Compound 1-11, 4-(3-(2-Methoxyphenyl)-1H-pyrazol-4-yl)-N-(4-methylpyrimidin-2-yl)thiazol-2-amine]",1000 to 10000
12,"Cc1cccc(-c2n[nH]cc2-c2csc(Nc3nccc(C)n3)n2)c1 [Compound 1-12, N-(4-Methylpyrimidin-2-yl)-4-(3-m-tolyl-1H-pyrazol-4-yl)thiazol-2-amine]",1000 to 10000
13,"c1ccc(Nc2nc(-c3c[nH]nc3N3CCOCC3)cs2)nc1 [Compound 1-13, 4-(3-Morpholino-1H-pyrazol-4-yl)-N-(pyridin-2-yl)thiazol-2-amine]",1000 to 10000
14,"Cc1ccnc(Nc2nc(-c3c[nH]nc3-c3cncc(C(C)(C)O)c3)cs2)n1 [Compound 1-14, 2-(5-(4-(2-(4-Methylpyrimidin-2-ylamino)thiazol-4-yl)-1H-pyrazol-3-yl)pyridin-3-yl)propan-2-ol]",1000 to 10000
15,"Cc1ccnc(Nc2nc(-c3c[nH]nc3-c3cccc(CCCO)c3)cs2)n1 [Compound 1-15, 3-(3-(4-(2-(4-Methylpyrimidin-2-ylamino)thiazol-4-yl)-1H-pyrazol-3-yl)phenyl)propan-1-ol]",100 to 1000
16,"Cc1ccnc(Nc2nc(-c3c[nH]nc3-c3ccc(Cl)cc3)cs2)n1 [Compound 1-16, 4-(3-(4-Chlorophenyl)-1H-pyrazol-4-yl)-N-(4-methylpyrimidin-2-yl)thiazol-2-amine]",100 to 1000
17,"Cc1ccnc(Nc2nc(-c3c[nH]nc3-c3ccc(C4CC4)cc3)cs2)n1 [Compound 1-17, 4-(3-(4-Cyclopropylphenyl)-1H-pyrazol-4-yl)-N-(4-methylpyrimidin-2-yl)thiazol-2-amine]",1000 to 10000
18,"Cc1ccnc(Nc2nc(-c3c[nH]nc3-c3ccncc3)cs2)n1 [Compound 1-18, N-(4-Methylpyrimidin-2-yl)-4-(3-(pyridin-4-yl)-1H-pyrazol-4-yl)thiazol-2-amine]",1000 to 10000
19,"Cc1ccnc(Nc2nc(-c3c[nH]nc3-c3ccccc3C)cs2)n1 [Compound 1-19, N-(4-Methylpyrimidin-2-yl)-4-(3-o-tolyl-1H-pyrazol-4-yl)thiazol-2-amine]",1000 to 10000
20,"Cc1ccnc(Nc2nc(-c3c[nH]nc3-c3ccccc3OC(F)(F)F)cs2)n1 [Compound 1-20, N-(4-Methylpyrimidin-2-yl)-4-(3-(2-(trifluoromethoxy)phenyl)-1H-pyrazol-4-yl)thiazol-2-amine]",1000 to 10000
21,"Cc1ccnc(Nc2nc(-c3c[nH]nc3-c3ccccc3Cl)cs2)n1 [Compound 1-21, 4-(3-(2-Chlorophenyl)-1H-pyrazol-4-yl)-N-(4-methylpyrimidin-2-yl)thiazol-2-amine]",100 to 1000
22,"Cc1ccnc(Nc2nc(-c3c[nH]nc3-c3cccc(C(N)=O)c3)cs2)n1 [Compound 1-22, 3-(4-(2-(4-Methylpyrimidin-2-ylamino)thiazol-4-yl)-1H-pyrazol-3-yl)benzamide]",1000 to 10000
23,"CCOc1ccccc1-c1n[nH]cc1-c1csc(Nc2nccc(C)n2)n1 [Compound 1-23, 4-(3-(2-Ethoxyphenyl)-1H-pyrazol-4-yl)-N-(4-methylpyrimidin-2-yl)thiazol-2-amine]",1000 to 10000
24,"Cc1ccnc(Nc2nc(-c3c[nH]nc3-c3ccc(F)cc3F)cs2)n1 [Compound 1-24, 4-(3-(2,4-Difluorophenyl)-1H-pyrazol-4-yl)-N-(4-methylpyrimidin-2-yl)thiazol-2-amine]",1000 to 10000
25,"Cc1ccnc(Nc2nc(-c3cn[nH]c3COC3CCC3)cs2)n1 [Compound 1-28, 4-(5-(Cyclobutoxymethyl)-1H-pyrazol-4-yl)-N-(4-methylpyrimidin-2-yl)thiazol-2-amine]",100 to 1000
26,"COC(C)c1[nH]ncc1-c1csc(Nc2nccc(C)n2)n1 (stereo not drawn) [Compound 1-29, 4-(5-(1-Methoxyethyl)-1H-pyrazol-4-yl)-N-(4-methylpyrimidin-2-yl)thiazol-2-amine]",100 to 1000
27,"COc1ccc(F)cc1-c1n[nH]cc1-c1csc(Nc2ncccn2)n1 [Compound 1-31, 4-(3-(5-Fluoro-2-methoxyphenyl)-1H-pyrazol-4-yl)-N-(pyrimidin-2-yl)thiazol-2-amine]",< 100
28,"CNC(=O)c1[nH]ncc1-c1csc(Nc2nccc(C)n2)n1 [Compound 1-32, N-Methyl-4-(2-(4-methylpyrimidin-2-ylamino)thiazol-4-yl)-1H-pyrazole-5-carboxamide]",1000 to 10000
29,"CC(=O)N1CCC=C(c2n[nH]cc2-c2csc(Nc3nccc(C)n3)n2)C1 [Compound 1-33, 1-(3-(4-(2-(4-Methylpyrimidin-2-ylamino)thiazol-4-yl)-1H-pyrazol-3-yl)-5,6-dihydropyridin-1(2H)-yl)ethanone]",1000 to 10000
30,"Cc1ccnc(Nc2nc(-c3cn[nH]c3-c3cc(C#N)ccc3F)cs2)n1 [Compound 1-34, 4-Fluoro-3-(4-(2-(4-methylpyrimidin-2-ylamino)thiazol-4-yl)-1H-pyrazol-5-yl)benzonitrile]",100 to 1000
